Test results reported in the supplement of paper PMC10307832.

Tests used:
Assay in all cases: relative viability (nuclei count vs DMSO), 5 days (fraction); higher = more cells survive
[1] = compound: C[C@@]1(C(=O)Nc2ccc(F)nc2)CCCN1c1nc(Nc2cc(C3CC3)n[nH]2)c2cccn2n1 + CCNC(=O)c1noc(-c2cc(C(C)C)c(O)cc2O)c1-c1ccc(CN2CCOCC2)cc1 [Luminespib] (partner 0.01 µM)
In short: (§1)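 Relative viability divides the nuclei count in treated wells by that in vehicle wells. Lung cancer cell lines were seeded in 1536-well plates, dosed by pin tool the next day, and fixed and stained after 5 days in one step with final 0.05% Triton X-100, 1% formaldehyde and 1 ug/ml Hoechst. Dosing was a single drug or a fixed anchor-drug dose plus five library-drug doses (not always all listed) in √10 steps, and values are medians of duplicate plates imaged at 4×.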

[2] = compound: C[C@@]1(C(=O)Nc2ccc(F)nc2)CCCN1c1nc(Nc2cc(C3CC3)n[nH]2)c2cccn2n1 + COc1cc2c(Oc3ccc(NC(=O)C4(C(=O)Nc5ccc(F)cc5)CC4)cc3F)ccnc2cc1OCCCN1CCOCC1 [Foretinib] (partner 0.25 µM)
In short: as §1

[3] = compound: C[C@@]1(C(=O)Nc2ccc(F)nc2)CCCN1c1nc(Nc2cc(C3CC3)n[nH]2)c2cccn2n1 + CS(=O)(=O)N1CCN(Cc2cc3nc(-c4cccc5[nH]ncc45)nc(N4CCOCC4)c3s2)CC1 [Pictilisib] (partner 1 µM)
In short: as §1

[4] = compound: C[C@@]1(C(=O)Nc2ccc(F)nc2)CCCN1c1nc(Nc2cc(C3CC3)n[nH]2)c2cccn2n1 + C[C@@H](Oc1cc(-c2cnn(C3CCNCC3)c2)cnc1N)c1c(Cl)ccc(F)c1Cl [Crizotinib] (partner 1 µM)
In short: as §1

[5] = compound: C[C@@]1(C(=O)Nc2ccc(F)nc2)CCCN1c1nc(Nc2cc(C3CC3)n[nH]2)c2cccn2n1 + C[C@]1(O)C[C@@H](c2nc(-c3ccc4ccc(-c5ccccc5)nc4c3)c3c(N)nccn32)C1 [Linsitinib] (partner 1 µM)
In short: as §1

UMC-11
relative viability ([1]; first compound 0.04 µM): 0.94 | relative viability ([1]; first compound 0.1265 µM): 1.01 | relative viability ([1]; first compound 0.4 µM): 0.968 | relative viability ([1]; first compound 1.265 µM): 0.726 | relative viability ([2]; first compound 0.04 µM): 1.09 | relative viability ([2]; first compound 0.1265 µM): 1.12 | relative viability ([2]; first compound 0.4 µM): 0.901 | relative viability ([2]; first compound 1.265 µM): 0.299 | relative viability ([3]; first compound 0.04 µM): 0.776 | relative viability ([3]; first compound 0.1265 µM): 0.868 | relative viability ([3]; first compound 0.4 µM): 0.805 | relative viability ([3]; first compound 1.265 µM): 0.723 | relative viability ([4]; first compound 0.04 µM): 0.615 | relative viability ([4]; first compound 0.1265 µM): 0.628 | relative viability ([4]; first compound 0.4 µM): 0.534 | relative viability ([4]; first compound 1.265 µM): 0.328 | relative viability ([5]; first compound 0.04 µM): 1.08 | relative viability ([5]; first compound 0.1265 µM): 0.985 | relative viability ([5]; first compound 0.4 µM): 0.957 | relative viability ([5]; first compound 1.265 µM): 1.05
